The values below come from US12234257B2, “Triterpene saponin derivative and use thereof” (KOREA INSTITUTE OF SCIENCE AND TECHNOLOGY, priority 2020, dated 2025).

One test addresses T1, MAO-B (Mus musculus, UniProt Q8BW75).
T1 construct: a MAO-B substrate was added to a MAO-B enzyme-containing substance (ST and SN samples); from tissue; host or cells: mouse brain: striatum (ST) and substantia nigra (SN/SNpc) homogenate supernatant
T1 sequence (Q8BW75 1-520): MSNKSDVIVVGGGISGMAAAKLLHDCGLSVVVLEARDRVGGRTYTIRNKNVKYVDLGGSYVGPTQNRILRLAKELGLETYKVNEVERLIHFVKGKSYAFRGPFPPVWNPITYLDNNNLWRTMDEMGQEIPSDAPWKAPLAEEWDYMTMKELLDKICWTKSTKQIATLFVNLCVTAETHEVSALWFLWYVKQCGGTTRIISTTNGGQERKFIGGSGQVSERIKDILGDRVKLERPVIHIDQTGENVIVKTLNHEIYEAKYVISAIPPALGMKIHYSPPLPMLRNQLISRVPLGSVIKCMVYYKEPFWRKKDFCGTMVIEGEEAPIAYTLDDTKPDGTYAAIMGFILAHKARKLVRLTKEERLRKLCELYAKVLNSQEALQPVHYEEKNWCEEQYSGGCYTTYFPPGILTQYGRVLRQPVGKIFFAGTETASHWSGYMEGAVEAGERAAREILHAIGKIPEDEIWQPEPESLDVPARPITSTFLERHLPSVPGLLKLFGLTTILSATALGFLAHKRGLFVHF
Put plainly: Determination of MAO-B activity of ST and SN. The class given is in vivo, mice (C57BL/6j). The following applies: both ST and SN; MPTP 30 mg/kg mice; 5 mg/kg and 15 mg/kg p.o. Here is the method:
40 mice were classified into five groups such that eight mice belonged to each group. After the habituation period, all mice were orally administered with a drug every day. While the mice of Groups 1 and 2 were administered with saline (p.o.), the mice of Groups 3, 4, and 5 were administered with 5 mg/kg ropinirole (p.o.), 5 mg/kg AKNS-2 (p.o.), and 15 mg/kg AKNS-2 (p.o.), respectively. From the 5th day therefrom, the mice of Group 1 were intraperitoneally administered with a saline at 1 hour after gavage feeding of saline, and the mice of Groups 2, 3, 4, and 5 were administered with 30 mg/kg MPTP (i.p.) at 1 hour after gavage feeding of saline, ropinirole, AKNS-2 (5 mg/kg), and AKNS-2 (15 mg/kg), respectively. […]
On the 7th day after the last administration of MPTP, SNpc and ST of each mouse were carefully excised and stored at −80° C. until use. […] A concentration of proteins contained in the supernatant was measured by the Bradford method. […]
A MAO-B assay kit of Promega Corporation (Woods Hollow Road, Madison, Wis., USA) was used to determine MAO-B activity of ST and SN according to the manufacturer's instructions. […] Luminescence signals were measured using an Infinite M1000 multimode microplate reader (TECAN, Männedorf, Switzerland). MAO-B activity was expressed as relative light unit (RLU)/mg protein).

The subject of another test is LC3-II. Put plainly: Autophagy induction assay (LC3-II/LC3-I ratio by western blot). The following applies: SH-SY5Y cells; for LC3-II expression: treatment with astersaponin I. The class given is cell-based, human. As to the method:
Protein markers contained in lysates of the SH-SY5Y cells and brain tissue of the mice (SNpc and ST) were measured by western blot analysis. Briefly, after determining a concentration, a protein sample (20 μg) was separated by 8%, 10%, or 15% sodium dodecyl sulfate-polyacrylamide gel electrophoresis (SDS-PAGE). Then, proteins separated on the gel were transferred to a polyvinylidene fluoride (PVDF) membrane for 45 minutes using a Trans-Blot Turbo Transfer System (Bio-Rad, USA). The membrane was washed with tris-buffered saline with 0.1% Tween 20, TBST) for 5 minutes and then blocked by 5% skim milk dissolved in a TBST buffer. The membrane was further incubated with monoclonal primary antibodies derived from rabbits (anti-GAPDH, anti-AMPK, anti-p-AMPK, anti-ULK, anti-p-ULK555, anti-Erk, anti-p-Erk, anti-mTOR, anti-p-mTOR, anti-LC3B, anti-TH, and anti-α-synuclein antibodies). The primary antibodies were diluted in a blocking buffer at a ratio of 1:1000 and incubated overnight at 4° C. On the second day, the membrane was washed with TBST three times (10 minutes each) and incubated at room temperature in a horseradish peroxidase-conjugated goat anti-rabbit IgG secondary antibody (diluted in a blocking buffer at a ratio of 1:2000). After incubating in the secondary antibody for 1 hour, the membrane was washed for 30 minutes. The protein blots on the membrane were developed using an ECL detection kit and visualized using an LAS-4000 mini system (Fujifilm, Japan). The intensity of the protein blots was quantified using Multi Gauge software (Fujifilm, Japan).
To investigate the autophagy inducing effect of A. koraiensis, human neuroblastoma (SH-SY5Y) cells were cultivated in 6-well plates at a density of 8×10^5 cells/well in 2 mL DMEM medium (Gibco) at 37° C. in a humidified atmosphere with 5% CO2. […] The protein expression of LC3-II in cell lysates was measured using western blot analysis. […] The immune blots were visualized using an ECL detection kit and analyzed using a LAS-4000 mini system (Fujifilm).

Each structure is given as a SMILES string.

As for `C[C@@H]1O[C@@H](O[C@@H]2[C@@H](O)[C@H](O[C@@H]3[C@@H](O[C@@H]4OC[C@@H](O)[C@H](O)[C@H]4O)[C@@H](O)[C@H](O[C@H]4[C@H](OC(=O)[C@]56CCC(C)(C)C[C@H]5C5=CC[C@@H]7[C@@]8(C)C[C@H](O)[C@H](O[C@@H]9O[C@H](CO)[C@@H](O)[C@H](O[C@@H]%10OC[C@@H](O)[C@H](O)[C@H]%10O)[C@H]9O)[C@@](C)(CO)[C@@H]8CC[C@@]7(C)[C@]5(C)C[C@H]6O)OC[C@H](O)[C@@H]4O)O[C@H]3C)OC[C@H]2O)[C@H](O)[C@H](O)[C@H]1O` [Compound 1, 3-O-β-D-xylopyranosyl-(1→3)-β-D-glucopyranosylpolygalacic acid 28-O-α-L-rhamnopyranosyl-(1→3)-β-D-xylopyranosyl-(1→4)-[β-D-xylopyranosyl-(1→3)]-α-L-rhamnopyranosyl-(1→2)-α-L-arabinopyranosyl ester], the “activity of MAO-B increased by MPTP” value on MAO-B is “could not reduce the activity of MAO-B”. The LC3-II/LC3-I ratio entry with LC3-II (24 hours, 5 μM, 10 μM and 20 μM) is given as “increase in the LC3-II/LC3-I ratio in a dose-dependent manner”. Besides, the LC3-II expression result was “significantly increasing the expression” in the test with LC3-II and “up-regulated LC3-II expression in a dose-dependent manner” in the test with LC3-II (listed as astersaponin I).
